Values of other authors as cited in patent US20250303004A1, “RADIOPHARMACEUTICAL COMPOSITIONS FOR LOW TOXICITY ACTINIUM IN TARGETED RADIONUCLIDE THERAPY” (Curium US LLC, priority 2021, published 2025).
“Also recorded” adds a separate entry of the source. Read-outs that look alike come from different tables or passages of the source.

Experiments:
patients with mCRPC [1] = conditions: cited from earlier work
mCRPC patients = conditions: cited from earlier work
patient [2] = conditions: Sathekge 2019a; 1 patient; 8 MBq per cycle; cited from earlier work
[3] = tested on: chemotherapy naive patients; conditions: cited from earlier work
patient [4] = conditions: De Medeiros 2019; 1 patient; 6-8 MBq per cycle; cited from earlier work
men with mCRPC = conditions: cited from earlier work
patients with mCRPC [5] = conditions: 26 patients, cited from earlier work; for Biochemical response PSA50 (PSA decline of >50%): all progressed after ^177Lu-PSMA
patients with mCRPC [6] = conditions: cited from earlier work; remark: listed apart in the source
patients [7] = conditions: van der Doelen 2020; 13 patients; 6-8 MBq per cycle; cited from earlier work
patient [8] = conditions: cited from earlier work
patients [9] = conditions: out of 60; cited from earlier work
cerebral metastases = conditions: in vivo; cited from earlier work
kidneys = conditions: in vivo; cited from earlier work
[10] = Kratochwil 2016, 2 patients, 100 kBq/kg per cycle
[11] = both patients, 100 kBq/kg every 8 weeks
[12] = Kratochwil 2017, 14 patients, 50-200 kBq/kg per cycle
[13] = Sathekge 2019b, 17 patients, 4-8 MBq per cycle
[14] = 73 patients, percentage in parentheses
[15] = Sathekge 2020, 73 patients, 4-8 MBq per cycle
[16] = Feuerecker 2020, 4-8 MBq per cycle
[17] = Yadav 2020, 28 patients, 100 kBq/kg per cycle
[18] = group with previous ^177Lu-PSMA
[19] = 3 cycles of mean 8.4 MBq, PSA 39.7 ng/ml at first cycle

SMILES: O=C(O)CC[C@H](NC(=O)N[C@@H](CCCCNC(=O)[C@H](Cc1ccc2ccccc2c1)NC(=O)[C@H]1CC[C@H](CNC(=O)CN2CCN(CC(=O)O)CCN(CC(=O)O)CCN(CC(=O)O)CC2)CC1)C(=O)O)C(=O)O [^225Ac-PSMA-617, metal not drawn]
- Salivary gland toxicity (xerostomia) (patients with mCRPC [1]; 2 patients): reported in both patients
- Biochemical response PSA50 (patients with mCRPC [1]; [10]): 100%
- Major toxicity (patients with mCRPC [1]; [10]): xerostomia
- PSA (patients with mCRPC [1]; [11]): declined below the measurable level
- response on ^68Ga-PSMA-11 PET/CT scan (patients with mCRPC [1]; [11]): complete response
- Biochemical response PSA50 (mCRPC patients; [12]): 44%
- Major toxicity (mCRPC patients; [12]): xerostomia
- OS (mCRPC patients; [12]): na/8.5 mo
- duration of prostate-specific antigen decline (mCRPC patients; at 100 kBq/kg): less than 4 months
- dose-limiting toxicity (mCRPC patients; if treatment activity exceeded 100 kBq/kg per cycle): severe xerostomia
- patients with remarkable antitumor activity (objective radiologic response or tumor marker decline) (mCRPC patients; of 11 evaluable patients): 9 patients
- toxicity (mCRPC patients; treatment activities of 50 kBq/kg): without toxicity
- antitumor response (mCRPC patients; treatment activities of 50 kBq/kg, high-tumor-burden patients): insufficient antitumor response
- Biochemical response PSA50 (patient [2]): 100%
- most frequently noted side-effect ([3]; 17 patients, no discontinuation due to severe symptoms): Grade 1-2 xerostomia
- Biochemical response PSA50 [3, 13]: 88%
- Major toxicity [3, 13]: xerostomia
- nephrotoxicity ([3]; a patient with only a single functional kidney, poor renal functioning from baseline): Grade 4 nephrotoxicity
- patients with PSA decline >90% ([3]; at end of therapy, 17 patients): 82%
- patients still alive ([3]; median follow up of 13 months post initiation of treatment): 82%
- surviving patients in remission with undetectable serum PSA levels ([3]; median follow up of 13 months): 50%
- surviving patients with stable disease ([3]; median follow up of 13 months): 50%
- Biochemical response PSA50 (patient [4]): 100%
- Major toxicity (patient [4]): xerostomia; also recorded: xerophtalmia
- Median PFS (men with mCRPC; 73 patients, 95% CI, 13.1-17.4 months): 15.2 months
- Median OS (men with mCRPC; 73 patients, 95% CI, 16.2-19.9 months): 18 months
- Anemia, Grade I or II (men with mCRPC; 73 patients): 22 patients
- Anemia, Grade IV (men with mCRPC; 73 patients): 0 patients
- Anorexia, Grade I or II (men with mCRPC; 73 patients): 23 patients
- Anorexia, Grade III (men with mCRPC; 73 patients): 0 patients
- Anorexia, Grade IV (men with mCRPC; 73 patients): 0 patients
- Constipation, Grade I or II (men with mCRPC; 73 patients): 19 patients
- Constipation, Grade III (men with mCRPC; 73 patients): 0 patients
- Constipation, Grade IV (men with mCRPC; 73 patients): 0 patients
- Dry eyes, Grade I or II (men with mCRPC; 73 patients): 4 patients
- Dry eyes, Grade III (men with mCRPC; 73 patients): 0 patients
- Dry eyes, Grade IV (men with mCRPC; 73 patients): 0 patients
- Dry mouth, Grade I or II (men with mCRPC; 73 patients): 62 patients
- Dry mouth, Grade III (men with mCRPC; 73 patients): 0 patients
- Dry mouth, Grade IV (men with mCRPC; 73 patients): 0 patients
- Dysgeusia, Grade I or II (men with mCRPC; 73 patients): 4 patients
- Dysgeusia, Grade III (men with mCRPC; 73 patients): 0 patients
- Dysgeusia, Grade IV (men with mCRPC; 73 patients): 0 patients
- Dyspepsia, Grade I or II (men with mCRPC; 73 patients): 3 patients
- Dyspepsia, Grade III (men with mCRPC; 73 patients): 0 patients
- Dyspepsia, Grade IV (men with mCRPC; 73 patients): 0 patients
- Dysuria, Grade I or II (men with mCRPC; 73 patients): 13 patients
- Dysuria, Grade III (men with mCRPC; 73 patients): 0 patients
- Dysuria, Grade IV (men with mCRPC; 73 patients): 0 patients
- Fatigue, Grade I or II (men with mCRPC; 73 patients): 37 patients
- Fatigue, Grade III (men with mCRPC; 73 patients): 0 patients
- Fatigue, Grade IV (men with mCRPC; 73 patients): 0 patients
- Hypoalbuminemia, Grade I or II (men with mCRPC; 73 patients): 14 patients
- Hypoalbuminemia, Grade III (men with mCRPC; 73 patients): 0 patients
- Hypoalbuminemia, Grade IV (men with mCRPC; 73 patients): 0 patients
- Leukopenia, Grade I or II (men with mCRPC; 73 patients): 7 patients
- Leukopenia, Grade IV (men with mCRPC; 73 patients): 0 patients
- Nausea, Grade I or II (men with mCRPC; 73 patients): 15 patients
- Nausea, Grade III (men with mCRPC; 73 patients): 0 patients
- Nausea, Grade IV (men with mCRPC; 73 patients): 0 patients
- Renal Failure, Grade I or II (men with mCRPC; 73 patients): 18 patients
- Thrombocytopenia, Grade I or II (men with mCRPC; 73 patients): 6 patients
- Thrombocytopenia, Grade IV (men with mCRPC; 73 patients): 0 patients
- Vomiting, Grade I or II (men with mCRPC; 73 patients): 4 patients
- Vomiting, Grade III (men with mCRPC; 73 patients): 0 patients
- Vomiting, Grade IV (men with mCRPC; 73 patients): 0 patients
- Weight loss, Grade I or II (men with mCRPC; 73 patients): 28 patients
- Weight loss, Grade III (men with mCRPC; 73 patients): 0 patients
- Weight loss, Grade IV (men with mCRPC; 73 patients): 0 patients
- patients with negative ^68Ga-PSMA PET/CT images post therapy (men with mCRPC; 73 patients): 29%
- Anemia, Grade III (men with mCRPC; [14]): 5 (7) patients
- Leukopenia, Grade III (men with mCRPC; [14]): 2 (3) patients
- Renal Failure, Grade III (men with mCRPC; [14]): 3 (4) patients
- Renal Failure, Grade IV (men with mCRPC; [14]): 2 (3) patients
- Thrombocytopenia, Grade III (men with mCRPC; [14]): 1 (1) patients
- Biochemical response PSA50 (≥50% PSA decline) (men with mCRPC; [15]): 70%
- OS (men with mCRPC; [15]): 18.0 mo
- PFS (men with mCRPC; [15]): 15.2 mo
- Biochemical response PSA50 (≥50% PSA decline) (men with mCRPC; Sathekge 2020, 73 patients, 4-8 MBq per cycle, listed as PSMA-617): 70%
- patients with any decline in PSA (men with mCRPC; at the end of therapy, 73 patients): 82%
- patients who had passed away (men with mCRPC; of 73): 13 patients
- patients with disease progression (men with mCRPC; of 73): 23 patients
- median overall survival (patients with mCRPC [5]; 95% CI 4.5-12.1 months): 7.7 months
- complete response (patients with mCRPC [5]): no complete response was seen
- patients refusing any further treatment due to severe xerostomia (patients with mCRPC [5]): 23%
- patients with any PSA reduction (patients with mCRPC [5]): 88%
- xerostomia (patients with mCRPC [5]): Mild irreversible xerostomia was seen in all patients
- patients with treatment discontinued to prevent further deterioration of marrow toxicity (patients with mCRPC [5]; pre-existing marrow toxicity): 8%
- Biochemical response PSA50 (PSA decline of >50%) (patients with mCRPC [5]; [16]): 65%
- Biochemical response PSA50 (PSA decline of >50%) (patients with mCRPC [5]; Feuerecker 2020, 4-8 MBq per cycle, listed as PSMA-617): 65%
- Major toxicity (patients with mCRPC [5]; [16]): xerostomia; also recorded: Hb↓, WBC↓, plt↓
- OS (patients with mCRPC [5]; [16]): 7.7 mo
- PFS (patients with mCRPC [5]; [16]): 3.5 mo
- Biochemical response PSA50 (patients with mCRPC [6]; [17]): 39%
- Major toxicity (patients with mCRPC [6]; [17]): xerostomia; also recorded: fatigue
- OS (patients with mCRPC [6]; [17]): 17 mo
- PFS (patients with mCRPC [6]; [17]): 12 mo
- PSA decline of >50% (patients with mCRPC [6]; ^177Lu PSMA naïve group): 53.8%
- median survival (patients with mCRPC [6]; ^177Lu PSMA naïve group): 12 months
- overall survival (patients with mCRPC [6]; ^177Lu PSMA naïve group): 17 months
- progression rate (patients with mCRPC [6]; ^177Lu PSMA naïve group): 22.3%
- PSA decline of >50% (patients with mCRPC [6]; [18]): 26.6%
- median survival (patients with mCRPC [6]; [18]): 10 months
- overall survival (patients with mCRPC [6]; [18]): 16 months
- progression rate (patients with mCRPC [6]; [18]): 46%
- Biochemical response PSA50 (patients [7]): 69%
- Major toxicity (patients [7]): xerostomia
- OS (patients [7]): na/8.5 mo
- PSA level at second cycle (patient [8]; [19]): 7.7 ng/mL
- PSA level at third cycle (patient [8]; [19]): 0.32 ng/mL
- xerostomia (patient [8]; 3 cycles of mean 8.4 MBq): chronic xerostomia
- creatinine (patient [8]; January 2019, increased from 1.3 in October 2015): 3.3 mg/dL
- patients with poor response despite sufficient tumor uptake in PSMA PET/CT (patients [9]): 10 patients
- blood-brain barrier crossing (cerebral metastases): crosses the blood-brain barrier
- effect on cerebral metastases (cerebral metastases): significant regression of cerebral metastases
- kidney function (kidneys): deteriorated
- route of excretion (kidneys): predominantly renal excretion
